Measured values published in BindingDB's records for doi:10.1021/jm401604x (University of Auckland, 2014).

Experiment: Inhibition of recombinant perforin (unknown origin)-mediated lysis of human [51Cr]-labelled Jurkat cells assessed as release of [51Cr] preincubated for 30 mins followed by addition of cells measured after 4 hrs by gamma counting analysis

IC50, > 20 µM:
CN1CCN(CCCN2Cc3cc(-c4ccc(/C=C5/NC(=S)NC5=O)s4)ccc3C2=O)CC1
CN(C)CCCN1Cc2cc(-c3ccc(/C=C4/NC(=S)NC4=O)s3)ccc2C1=O
O=C1NC(=S)N/C1=C/c1ccc(-c2ccc(C(=O)NCCN3CCOCC3)cc2)s1
O=C1NC(=S)N/C1=C/c1ccc(-c2ccc(C(=O)N3CCOCC3)cc2)s1
O=C1NC(=S)N/C1=C/c1ccc(-c2ccccc2Cl)s1
O=C1NC(=S)N/C1=C/c1ccc(-c2ccccc2)s1
